From US5605921A, “Triazole derivatives and salts thereof, and antifungal agent containing the same” (Toyama Chemical Co., Ltd., priority 1991, dated 1997)
In brackets after ≈: the same amount, converted by molar mass.

Columns and labels:
Candida albicans ON28 [1] = test: Minimum inhibitory concentration (MIC) against Candida albicans ON28; assay type: cell-based; details: ON28, 72 h, TC broth medium, 10^4 spores/ml, 37° C., 3 days
Method: (§1) MIC was determined in accordance with the method of M. S. Marriott [25th Interscience Conference on Antimicrobial Agents and Chemotherapy, p. 243 (1985)].
(§2) Candida albicans ON28 was cultured in a sabouraud dextrose agar medium containing 10 g of neopeptone, 20 g of glucose and 15 g of agar per liter, at 30° C. for 1-2 days. The yeast cells were suspended in sterile distilled water. Separately, Aspergillus fumigatus IFO8868 was cultured in a potato dextrose agar medium (manufactured by Nissui Pharmaceutical Co., Ltd.) at 30° C. until the conidia were formed abundantly. The formed conidia were suspended in a sterile physiological saline containing 0.1% of Tween 80. Each of the Candida albicans suspension and the Aspergillus fumigatus suspension was inoculated into a TC broth medium (containing 1.17 g of an yeast carbon base, 0.25 g of ammonium sulfate, 2.0 ml of a 50-fold concentrate of L-glutamic acid-containing MEM amino acid, 20 ml of a 0.5M phosphate buffer of pH 7.5 and 1.33 ml of 7.5% sodium hydrogencarbonate per 100 ml) containing a test compound, so that the final fungal amount became 10^4 spores/ml. Then, culture was conducted at 37° C. for 3 days. Thereafter, the growth of fungi was examined. The minimum concentration of test compound at which the growth of fungi had been inhibited, was taken as MIC (μg/ml).

[2] = test system: Aspergillus fumigatus IFO8868; test: Minimum inhibitory concentration (MIC) against Aspergillus fumigatus IFO8868; assay type: cell-based; details: IFO8868, 72 h, TC broth medium, 10^4 spores/ml, 37° C., 3 days
Method: as §1, §2

Candida albicans ON28 [3] = test: Therapeutic effect, oral, mice infected with Candida albicans ON28 (1), Table 2a; assay type: in vivo, ICR strain male mice infected with Candida albicans ON28; details: average survival days of Ketoconazole taken as 100; Candida albicans 3.5×10^6 cells/mouse i.v.; 0.1 mg/mouse oral, 2 hours after infection; 10 days observation; 5 mice
Method: (1) The therapeutic effects of the present compounds, when they were administered orally, were examined using mice infected with Candida albicans ON28.
(§3) Candida albicans ON28 was injected in a proportion of 3.5×10^6 cells/mouse to a group of 5 ICR strain male mice (weight: 19-21 g) intravenously at the tails, whereby the mice were infected with the fungi. […] The relative therapeutic index of the test compound was determined from the average survival days.
The results are shown in Table 2a, in which the relative therapeutic index of each test compound is a value calculated by taking the average survival days Ketoconazole as 100.

[4] = test system: Aspergillus fumigatus IFO8868; test: Therapeutic effect, oral, mice infected with Aspergillus fumigatus IFO8868 (2), Table 2b; assay type: in vivo; details: average survival days of Ketoconazole taken as 100; Aspergillus fumigatus 3.6×10^6 cells/mouse i.v.; 0.8 mg/mouse oral, 2 hours after infection; 10 days observation; 5 mice
Method: (2) The therapeutic effects of the present compounds, when they were administered orally, were examined using mice infected with Aspergillus fumigatus IFO8868.
as §3, with “Aspergillus fumigatus IFO8868” for “Candida albicans ON28”, “3.6×10^6” for “3.5×10^6”
The results are shown in Table 2b, in which the relative therapeutic index of each test compound is a value calculated by taking the average survival days of Ketoconazole as 100.

Candida albicans ON28 [5] = test: Therapeutic effect, oral, mice infected with Candida albicans ON28 (3), Table 2c; assay type: in vivo, ICR strain male mice infected with Candida albicans ON28; details: average survival days of Ketoconazole taken as 100; Candida albicans 5.7×10^6 cells/mouse i.v.; 0.1 mg/mouse oral, 2 hours after infection; 10 days observation; 10 mice
Method: (3) The therapeutic effects of the present compounds, when they were administered orally, were examined using mice infected with Candida albicans ON28.
as §3, with “5.7×10^6” for “3.5×10^6”, “10” for “5”
The results are shown in Table 2c, in which the relative therapeutic index of each test compound is a value calculated by taking the average survival days Ketoconazole as 100.

[6] = test system: Aspergillus fumigatus IFO8868; test: Therapeutic effect, oral, mice infected with Aspergillus fumigatus IFO8868 (4), Table 2d; assay type: in vivo; details: average survival days of Ketoconazole taken as 100; Aspergillus fumigatus 5.8×10^6 cells/mouse i.v.; 0.8 mg/mouse oral, 2 hours after infection and once daily for six consecutive days; 10 days observation; 10 mice
Method: (4) The therapeutic effects of the present compounds, when they were administered orally, were examined using mice infected with Aspergillus fumigatus IFO8868.
as §3, with “Aspergillus fumigatus IFO8868” for “Candida albicans ON28”, “5.8×10^6” for “3.5×10^6”, “10” for “5”
The results are shown in Table 2d, in which the relative therapeutic index of each test compound is a value calculated by taking the average survival days of Ketoconazole as 100.

[7] = Acute toxicity in mice, intravenous; assay type: in vivo; details: intravenous at the tail, ICR strain male mice, group of 5; 50% solution in polyethylene glycol 300
Method: Each of the compounds of Examples 10, 12, 19, 79, 142 and 146 was administered to a group of 5 ICR strain male mice (weight: 29-31 g) intravenously at the tails, and the acute toxicity of each compound was examined.
Each compound was administered in the form of a 50% solution in polyethylene glycol 300.

Row | Structure (SMILES) | MIC (Candida albicans ON28 [1]) [µg/mL] | MIC [2] [µg/mL] | Relative therapeutic index (Candida albicans ON28 [3]) | Relative therapeutic index [4] | Relative therapeutic index (Candida albicans ON28 [5]) | Relative therapeutic index [6] | dose up to which no dead case occurred (acute toxicity) [7] [mg/kg]
1 | O=C(NC1CC1)C(F)(F)C(O)(Cn1cncn1)c1ccc(F)cc1F (centres unmarked) [Example 19] | 0.1 (≈ 0.279 µM) | 50 (≈ 140 µM) | 625 | 164 | 405 | 253 | ≥ 100
2 | O=C(NC1CC1)C(F)(F)C(O)(Cn1cncn1)c1ccc(F)cc1Cl (centres unmarked) [Example 30] | 0.2 (≈ 0.534 µM) | 12.5 (≈ 33.4 µM) | 355 | 207 | 414 | 358 | –
3 | CCNC(=O)C(F)(F)C(O)(Cn1cncn1)c1ccc(F)cc1F (centres unmarked) [Example 12] | 0.2 (≈ 0.578 µM) | 25 (≈ 72.2 µM) | 440 | 150 | 445 | 237 | ≥ 100
